# In patent US8883963B2 (Cadila Healthcare Limited, priority 2007, dated 2014):
# What was measured:
# [1] = tested on: RIN5F (Rat Insulinoma) cells; experiment: In vitro glucose-dependent insulin secretion (RIN5F cell assay screening protocol); assay type: cell-based; settings: 16.7 mM glucose load
# Human GLP-1 receptor = molecular target: T1, Human GLP-1 receptor (Homo sapiens, UniProt P43220); experiment: In vitro Human GLP-1 R agonist activity (cyclic AMP determination) in CHO/human GLP1R cells; assay type: cell-based
# T1 construct: The full-length cDNA was cloned in pcDNA3.1(+); expressed in transfected cells
# human glucagon receptor = molecular target: T2, human glucagon receptor (Homo sapiens, UniProt P47871); experiment: In vitro human glucagon antagonist activity (inhibition of cAMP production) in CHO/human glucagon R cells; assay type: cell-based; settings: with saturated concentration of glucagon peptide
# T2 construct: The full-length cDNA was cloned in pcDNA3.1 (Invitrogen); expressed in transfected cells
# DPP IV = DPP IV (Homo sapiens, UniProt P27487); experiment: Stability against DPP IV enzyme; assay type: in vitro ADME; settings: 37° C.; for % degradation of peptidomimetics in 24 h when incubated with DPP-IV enzyme: 2 μM peptidomimetic; for half-life at 2 μM: DPP IV enzyme, pH 7.8, 2 μM peptidomimetic, read-out: half-life (t1/2) when incubated with DPP-IV enzyme
# Procedure: (§1) Reactions were terminated by the addition of TFA/H2O (15 mL, 10% (v/v)). […] The column was equilibrated with TFA/H20, at a flow rate of 1 mL/min.
# [2] = Stability in human plasma; assay type: in vitro ADME; settings: 2 μM peptidomimetic, pooled human plasma, 37° C.; for half-life at 2 μM: pH 7.8, read-out: half-life (t1/2) when incubated with human plasma
# Procedure: as §1
# [3] = Stability in simulated gastric fluid; assay type: in vitro ADME; settings: 2 μM peptidomimetic, simulated gastric fluid pH 1.5, 37° C.; for half-life at 2 μM: read-out: half-life (t1/2) when incubated with simulated gastric fluid
# Procedure: as §1
# [4] = Stability in simulated intestinal fluid; assay type: in vitro ADME; settings: 2 μM peptidomimetic, simulated intestinal fluid pH 7.5, 37° C.; for half-life at 2 μM: read-out: half-life (t1/2) when incubated with simulated intestinal fluid
# Procedure: as §1
# [5] = Stability in liver microsomes; assay type: in vitro ADME; settings: 2 μM peptidomimetic, human liver microsomes, 37° C.
# Procedure: as §1
# DPP IV, sequence (P27487 whole entry, species assumed): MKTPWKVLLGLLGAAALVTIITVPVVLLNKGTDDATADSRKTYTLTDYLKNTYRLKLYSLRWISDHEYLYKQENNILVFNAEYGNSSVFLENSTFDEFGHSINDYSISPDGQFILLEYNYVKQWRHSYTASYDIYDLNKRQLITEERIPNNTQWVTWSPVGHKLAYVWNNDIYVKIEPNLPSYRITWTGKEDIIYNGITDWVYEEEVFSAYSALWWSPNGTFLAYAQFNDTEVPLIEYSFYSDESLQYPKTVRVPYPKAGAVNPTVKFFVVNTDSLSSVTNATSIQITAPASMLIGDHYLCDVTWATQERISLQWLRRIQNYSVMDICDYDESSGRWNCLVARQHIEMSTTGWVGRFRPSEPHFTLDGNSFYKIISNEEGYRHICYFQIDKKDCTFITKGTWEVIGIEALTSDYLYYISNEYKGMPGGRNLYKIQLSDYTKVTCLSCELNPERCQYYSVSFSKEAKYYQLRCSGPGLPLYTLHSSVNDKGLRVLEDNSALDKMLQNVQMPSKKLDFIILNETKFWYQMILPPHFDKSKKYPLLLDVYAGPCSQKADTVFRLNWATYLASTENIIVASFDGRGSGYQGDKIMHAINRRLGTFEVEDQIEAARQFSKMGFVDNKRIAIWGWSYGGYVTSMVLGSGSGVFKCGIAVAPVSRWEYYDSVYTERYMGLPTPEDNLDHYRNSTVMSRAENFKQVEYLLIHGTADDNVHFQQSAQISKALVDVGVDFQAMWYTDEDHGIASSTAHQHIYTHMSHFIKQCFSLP
# T1 sequence (P43220 24-463): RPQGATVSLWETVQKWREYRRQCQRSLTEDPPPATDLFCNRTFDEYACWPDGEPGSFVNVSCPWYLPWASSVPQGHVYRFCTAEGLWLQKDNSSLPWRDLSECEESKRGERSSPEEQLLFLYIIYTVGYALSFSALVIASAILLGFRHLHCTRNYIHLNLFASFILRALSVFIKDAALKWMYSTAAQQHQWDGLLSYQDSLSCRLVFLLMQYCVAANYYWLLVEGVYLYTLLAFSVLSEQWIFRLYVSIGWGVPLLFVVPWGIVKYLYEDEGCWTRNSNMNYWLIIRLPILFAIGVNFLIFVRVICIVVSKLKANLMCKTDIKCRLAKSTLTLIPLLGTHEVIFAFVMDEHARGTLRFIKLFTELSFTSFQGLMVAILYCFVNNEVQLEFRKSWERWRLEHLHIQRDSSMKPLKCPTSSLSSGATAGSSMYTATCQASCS
# T2 sequence (P47871 26-477): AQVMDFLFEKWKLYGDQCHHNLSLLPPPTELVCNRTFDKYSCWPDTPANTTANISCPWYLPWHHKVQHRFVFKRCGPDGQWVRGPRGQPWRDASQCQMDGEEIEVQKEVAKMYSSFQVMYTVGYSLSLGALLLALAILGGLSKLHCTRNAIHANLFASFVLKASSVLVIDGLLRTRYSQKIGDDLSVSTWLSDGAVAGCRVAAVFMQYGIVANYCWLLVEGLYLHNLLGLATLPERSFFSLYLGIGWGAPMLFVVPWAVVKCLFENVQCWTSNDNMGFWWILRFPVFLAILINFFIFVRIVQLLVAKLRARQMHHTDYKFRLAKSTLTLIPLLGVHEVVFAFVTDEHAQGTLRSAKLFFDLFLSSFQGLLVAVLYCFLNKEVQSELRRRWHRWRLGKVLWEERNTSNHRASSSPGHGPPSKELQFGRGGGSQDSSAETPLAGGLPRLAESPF
Structure (SMILES),Insulin secretion ([1]; 0.1 nM test compd.) [pg/µg/h],Insulin secretion ([1]; 1 nM test compd.) [pg/µg/h],Insulin secretion ([1]; 10 nM test compd.) [pg/µg/h],"Human GLP-1 R activity (cAMP release), % activity with respect to control (Human GLP-1 receptor; 1 nM test compound) [%]","Human GLP-1 R activity (cAMP release), % activity with respect to control (Human GLP-1 receptor; 10 nM test compound) [%]","Human GLP-1 R activity (cAMP release), % activity with respect to control (Human GLP-1 receptor; 100 nM test compound) [%]","Human GLP-1 R activity (cAMP release), % activity with respect to control (Human GLP-1 receptor; 1 μM test compound) [%]","Human GLP-1 R activity (cAMP release), % activity with respect to control (Human GLP-1 receptor; 10 μM test compound) [%]",Human Glucagon receptor antagonistic activity shown as inhibition of cAMP production of Glucagon peptide (human glucagon receptor; 1 nM test compound) [pmol/ml/μg prt],Human Glucagon receptor antagonistic activity shown as inhibition of cAMP production of Glucagon peptide (human glucagon receptor; 10 nM test compound) [pmol/ml/μg prt],Human Glucagon receptor antagonistic activity shown as inhibition of cAMP production of Glucagon peptide (human glucagon receptor; 100 nM test compound) [pmol/ml/μg prt],Human Glucagon receptor antagonistic activity shown as inhibition of cAMP production of Glucagon peptide (human glucagon receptor; 1 μM test compound) [pmol/ml/μg prt],Human Glucagon receptor antagonistic activity shown as inhibition of cAMP production of Glucagon peptide (human glucagon receptor; 10 μM test compound) [pmol/ml/μg prt],% degradation of peptidomimetics in 24 h when incubated with DPP-IV enzyme (DPP IV) [%],half-life at 2 μM (DPP IV) [h],% degradation of peptidomimetics in 24 h when incubated with human plasma [2] [%],half-life at 2 μM [2] [h],% degradation of peptidomimetics in 24 h when incubated with simulated gastric fluid [3] [%],% degradation of peptidomimetics in 24 h when incubated with simulated intestinal fluid [4] [%],% degradation of peptidomimetics in 24 h when incubated with liver microsomes [5] [%],also measured
"CCc1cc(OC)ccc1-c1ccc(CC(NC(=O)[C@H](CC(=O)O)NC(=O)[C@H](CO)NC(=O)[C@@H](NC(=O)C(C)(Cc2ccccc2F)NC(=O)[C@@H](NC(=O)CNC(=O)C(CCC#N)NC(=O)C(C)(C)NC(=O)[C@@H](N)Cc2c[nH]cn2)[C@H](C)O)[C@H](C)O)C(=O)N(C)C(CCCc2ccccc2)C(N)=O)cc1 (single isomer, unassigned) [compound 130]",17.1 ± 0.11,23.1 ± 0.16,37.0 ± 0.29,39 ± 0.10,81 ± 0.08,89 ± 0.09,96 ± 0.11,99 ± 0.16,5 ± 0.04,3 ± 0.02,1 ± 0.11,0,0,76,9,78,8,12,55,79,"half-life (t1/2) when incubated with simulated gastric fluid [3]: (8) h; half-life (t1/2) when incubated with simulated intestinal fluid [4]: (6) h; half-life at 2 μM ([5]; pH 7.8, read-out: half-life (t1/2) when incubated with liver microsomes): 1 h"
"CCc1cc(OC)ccc1-c1ccc(CC(CNC(CCCc2ccccc2)C(N)=O)NC[C@H](CC(=O)O)NC(=O)[C@H](CO)NC(=O)[C@@H](NC(=O)C(C)(Cc2ccccc2F)NC(=O)[C@@H](NC(=O)CNC(=O)C(CCC#N)NC(=O)C(C)(C)NC(=O)[C@@H](N)Cc2c[nH]cn2)[C@H](C)O)[C@H](C)O)cc1 (single isomer, unassigned) [compound 202]",16.8 ± 0.20,22.7 ± 0.29,36.6 ± 0.31,99 ± 0.12,99 ± 0.15,99 ± 0.18,99 ± 0.03,99 ± 0.09,9 ± 0.14,6 ± 0.14,5 ± 0.13,3 ± 0.24,0,00,> 24,00,> 24,00,00,33,half-life at 2 μM [3]: > 24 h; half-life at 2 μM [4]: > 24 h; half-life (t1/2) when incubated with liver microsomes [5]: (5) h
"CCc1cc(OC)ccc1-c1ccc(CC(NC(=O)[C@H](CC(=O)O)NC(=O)[C@H](CO)NC(=O)[C@@H](NC(=O)[C@H](Cc2ccccc2)NC(=O)[C@@H](NC(=O)CNC(=O)C(CCC#N)NC(=O)C(C)(C)NC(=O)[C@@H](N)Cc2c[nH]cn2)[C@@H](C)O)[C@@H](C)O)C(=O)NC(CCCc2ccccc2)C(N)=O)cc1 (single isomer, unassigned) [compound 29]",16.3 ± 0.15,22.4 ± 0.21,36.2 ± 0.11,96 ± 0.09,99 ± 0.07,99 ± 0.04,99 ± 0.01,99 ± 0.08,20 ± 0.06,18 ± 0.09,16 ± 0.01,14 ± 0.03,12 ± 0.01,00,> 24,00,> 24,00,00,32,half-life at 2 μM [3]: > 24 h; half-life at 2 μM [4]: > 24 h; half-life (t1/2) when incubated with liver microsomes [5]: (5) h
"CCc1cc(OC)ccc1-c1ccc(CC(NC(=O)[C@H](CC(=O)O)NC(=O)[C@H](CO)NC(=O)[C@@H](NC(=O)C(C)(Cc2ccccc2F)NC(=O)[C@@H](NC(=O)CNC(=O)C(CCC#N)NC(=O)C(C)(C)NC(=O)[C@H](Cc2c[nH]cn2)NC(=O)OC)[C@@H](C)O)[C@@H](C)O)C(=O)NC(CCCc2ccccc2)C(N)=O)cc1 (single isomer, unassigned) [compound 206]",12.1 ± 0.42,14.6 ± 0.41,27.8 ± 0.46,39 ± 0.12,80 ± 0.15,86 ± 0.18,95 ± 0.03,98 ± 0.09,0,0,0,0,0,00,> 24,00,> 24,00,00,32,half-life at 2 μM [3]: > 24 h; half-life at 2 μM [4]: > 24 h; half-life (t1/2) when incubated with liver microsomes [5]: (5) h
